According to paper PMC9186362, “Design and biological evaluation of substituted 5,7-dihydro-6H-indolo[2,3-c]quinolin-6-one as novel selective Haspin inhibitors” (Journal of Enzyme Inhibition and Medicinal Chemistry, 2022):

Experiments:
Assay in all cases: LanthaScreen Binding - Eu-anti-GST
ABL1 M351T = ABL1 M351T (Homo sapiens, UniProt P00519, M351T); details: read-out: Percentage of inhibition
Procedure: (§1) We further evaluated the selectivity profile of compound 55 on a larger panel of kinases (SelectScreen Whole Panel, Life Technologies). The inhibition profile of 55, evaluated at 1 μM, is depicted on a dendrogram on Figure 3 where kinases inhibited by a minimum of 80% are shown. A full list of the kinases tested is shown on Table S1 in supplementary information.

ACVR1 (ALK2) = target: T1, ACVR1 (ALK2) (Homo sapiens, UniProt Q04771); details: read-out: Percentage of inhibition
T1 construct: purchased Life Technologies (SelectScreen Whole Panel service)
Procedure: as §1

ADCK3 = ADCK3 (Homo sapiens, UniProt Q8NI60); details: read-out: Percentage of inhibition
Procedure: as §1

ALK L1196M = target: T2, ALK L1196M (Homo sapiens, UniProt Q9UM73, L1196M); details: read-out: Percentage of inhibition
T2 construct: purchased Life Technologies (SelectScreen Whole Panel service)
Procedure: as §1

AXL R499C = target: T3, AXL R499C (Homo sapiens, UniProt P30530, R499C); details: read-out: Percentage of inhibition
T3 construct: purchased Life Technologies
Procedure: as §1

BMPR1B (ALK6) = target: T4, BMPR1B (ALK6) (Homo sapiens, UniProt O00238); details: read-out: Percentage of inhibition
T4 construct: purchased Life Technologies (SelectScreen)
Procedure: as §1

CDC7/DBF4 = target: T5, CDC7/DBF4 (Homo sapiens, UniProt O00311); details: read-out: Percentage of inhibition
T5 construct: purchased Life Technologies (SelectScreen service)
Procedure: as §1

CDK11 (Inactive) = CDK11 (Inactive) (Homo sapiens, UniProt Q9BWU1); details: read-out: Percentage of inhibition
Procedure: as §1

CDK16 (PCTK1)/cyclin Y = target: T6, CDK16 (PCTK1)/cyclin Y (Homo sapiens, UniProt Q00536); details: read-out: Percentage of inhibition
T6 construct: purchased Life Technologies
Procedure: as §1

CDK9 (Inactive) = CDK9 (Inactive) (Homo sapiens, UniProt P50750); details: read-out: Percentage of inhibition
Procedure: as §1

EGFR (ErbB1) d746-750 = target: T7, EGFR (ErbB1) d746-750 (Homo sapiens, UniProt P00533, DEL746-750); details: read-out: Percentage of inhibition
T7 construct: purchased Life Technologies
Procedure: as §1

[1] = target: T8, EGFR (ErbB1) d747-749 A750P (Homo sapiens, UniProt P00533, A750P/DEL747-749); details: read-out: Percentage of inhibition
T8 construct: purchased Life Technologies
Procedure: as §1

EIF2AK2 (PKR) = target: T9, EIF2AK2 (PKR) (Homo sapiens, UniProt P19525); details: read-out: Percentage of inhibition
T9 construct: purchased Life Technologies (SelectScreen service)
Procedure: as §1

FGFR3 K650M = FGFR3 K650M (Homo sapiens, UniProt P22607, K650M); details: read-out: Percentage of inhibition
Procedure: as §1

GRK1 = target: T10, GRK1 (Homo sapiens, UniProt Q15835); details: read-out: Percentage of inhibition
T10 construct: purchased Life Technologies (SelectScreen Whole Panel)
Procedure: as §1

KIT D820E = target: T11, KIT D820E (Homo sapiens, UniProt P10721, D820E); details: read-out: Percentage of inhibition
T11 construct: purchased Life Technologies (SelectScreen service)
Procedure: as §1

KIT N822K = target: T12, KIT N822K (Homo sapiens, UniProt P10721, N822K); details: read-out: Percentage of inhibition
T12 construct: purchased Life Technologies (SelectScreen Whole Panel service)
Procedure: as §1

KIT V559D T670I = target: T13, KIT V559D T670I (Homo sapiens, UniProt P10721, T670I/V559D); details: read-out: Percentage of inhibition
T13 construct: purchased Life Technologies
Procedure: as §1

KIT Y823D = target: T14, KIT Y823D (Homo sapiens, UniProt P10721, Y823D); details: read-out: Percentage of inhibition
T14 construct: purchased Life Technologies
Procedure: as §1

MAP3K3 (MEKK3) = target: T15, MAP3K3 (MEKK3) (Homo sapiens, UniProt Q99759); details: read-out: Percentage of inhibition
T15 construct: purchased Life Technologies (SelectScreen service)
Procedure: as §1

MASTL = target: T16, MASTL (Homo sapiens, UniProt Q96GX5); details: read-out: Percentage of inhibition
T16 construct: purchased Life Technologies (SelectScreen Whole Panel)
Procedure: as §1

MKNK2 (MNK2) = MKNK2 (MNK2) (Homo sapiens, UniProt Q9HBH9); details: read-out: Percentage of inhibition
Procedure: as §1

NUAK2 = target: T17, NUAK2 (Homo sapiens, UniProt Q9H093); details: read-out: Percentage of inhibition
T17 construct: purchased Life Technologies (SelectScreen Whole Panel)
Procedure: as §1

PRKACB (PRKAC beta) = target: T18, PRKACB (PRKAC beta) (Homo sapiens, UniProt P22694); details: read-out: Percentage of inhibition
T18 construct: purchased Life Technologies
Procedure: as §1

PRKACG (PRKAC gamma) = target: T19, PRKACG (PRKAC gamma) (Homo sapiens, UniProt P22612); details: read-out: Percentage of inhibition
T19 construct: purchased Life Technologies (SelectScreen Whole Panel service)
Procedure: as §1

RAF1 (cRAF) Y340D Y341D = target: T20, RAF1 (cRAF) Y340D Y341D (Homo sapiens, UniProt P04049, Y340D/Y341D); details: read-out: Percentage of inhibition
T20 construct: purchased Life Technologies
Procedure: as §1

STK17B (DRAK2) = target: T21, STK17B (DRAK2) (Homo sapiens, UniProt O94768); details: ATP Km, read-out: Percentage of inhibition
T21 construct: purchased Life Technologies
Procedure: as §1

STK32C (YANK3) = target: T22, STK32C (YANK3) (Homo sapiens, UniProt Q86UX6); details: read-out: Percentage of inhibition
T22 construct: purchased Life Technologies (SelectScreen Whole Panel)
Procedure: as §1

TESK2 = target: T23, TESK2 (Homo sapiens, UniProt Q96S53); details: read-out: Percentage of inhibition
T23 construct: purchased Life Technologies
Procedure: as §1

TGFBR1 (ALK5) = target: T24, TGFBR1 (ALK5) (Homo sapiens, UniProt P36897); details: read-out: Percentage of inhibition
T24 construct: purchased Life Technologies (SelectScreen Whole Panel service)
Procedure: as §1

TGFBR2 = target: T25, TGFBR2 (Homo sapiens, UniProt P37173); details: read-out: Percentage of inhibition
T25 construct: purchased Life Technologies (SelectScreen Whole Panel)
Procedure: as §1

TLK1 = TLK1 (Homo sapiens, UniProt Q9UKI8); details: read-out: Percentage of inhibition
Procedure: as §1

TLK2 = target: T26, TLK2 (Homo sapiens, UniProt Q86UE8); details: read-out: Percentage of inhibition
T26 construct: purchased Life Technologies (SelectScreen service)
Procedure: as §1

ULK1 = target: T27, ULK1 (Homo sapiens, UniProt O75385); details: read-out: Percentage of inhibition
T27 construct: purchased Life Technologies
Procedure: as §1

VRK2 = target: T28, VRK2 (Homo sapiens, UniProt Q86Y07); details: read-out: Percentage of inhibition
T28 construct: purchased Life Technologies (SelectScreen Whole Panel)
Procedure: as §1

WEE1 = target: T29, WEE1 (Homo sapiens, UniProt P30291); details: read-out: Percentage of inhibition
T29 construct: purchased Life Technologies (SelectScreen Whole Panel service)
Procedure: as §1

WNK2 = WNK2 (Homo sapiens, UniProt Q9Y3S1); details: read-out: Percentage of inhibition
Procedure: as §1

ZAK = target: T30, ZAK (Homo sapiens, UniProt Q9NYL2); details: read-out: Percentage of inhibition
T30 construct: purchased Life Technologies
Procedure: as §1

T10 sequence (Q15835 whole entry): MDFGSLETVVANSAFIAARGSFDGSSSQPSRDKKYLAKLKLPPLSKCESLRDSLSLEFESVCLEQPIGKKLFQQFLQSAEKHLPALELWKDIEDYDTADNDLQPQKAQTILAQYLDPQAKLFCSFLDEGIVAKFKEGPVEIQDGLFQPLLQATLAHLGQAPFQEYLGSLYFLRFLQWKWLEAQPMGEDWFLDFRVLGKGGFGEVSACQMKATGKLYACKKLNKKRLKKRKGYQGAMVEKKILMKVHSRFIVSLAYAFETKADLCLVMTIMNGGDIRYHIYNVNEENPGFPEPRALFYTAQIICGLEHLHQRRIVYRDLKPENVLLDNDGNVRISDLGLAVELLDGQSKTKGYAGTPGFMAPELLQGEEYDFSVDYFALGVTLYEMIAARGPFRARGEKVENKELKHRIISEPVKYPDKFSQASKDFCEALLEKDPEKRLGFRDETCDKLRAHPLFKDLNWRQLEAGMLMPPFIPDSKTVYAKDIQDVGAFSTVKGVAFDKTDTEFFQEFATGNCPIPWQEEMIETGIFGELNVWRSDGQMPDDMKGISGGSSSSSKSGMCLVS
T27 sequence (O75385 whole entry): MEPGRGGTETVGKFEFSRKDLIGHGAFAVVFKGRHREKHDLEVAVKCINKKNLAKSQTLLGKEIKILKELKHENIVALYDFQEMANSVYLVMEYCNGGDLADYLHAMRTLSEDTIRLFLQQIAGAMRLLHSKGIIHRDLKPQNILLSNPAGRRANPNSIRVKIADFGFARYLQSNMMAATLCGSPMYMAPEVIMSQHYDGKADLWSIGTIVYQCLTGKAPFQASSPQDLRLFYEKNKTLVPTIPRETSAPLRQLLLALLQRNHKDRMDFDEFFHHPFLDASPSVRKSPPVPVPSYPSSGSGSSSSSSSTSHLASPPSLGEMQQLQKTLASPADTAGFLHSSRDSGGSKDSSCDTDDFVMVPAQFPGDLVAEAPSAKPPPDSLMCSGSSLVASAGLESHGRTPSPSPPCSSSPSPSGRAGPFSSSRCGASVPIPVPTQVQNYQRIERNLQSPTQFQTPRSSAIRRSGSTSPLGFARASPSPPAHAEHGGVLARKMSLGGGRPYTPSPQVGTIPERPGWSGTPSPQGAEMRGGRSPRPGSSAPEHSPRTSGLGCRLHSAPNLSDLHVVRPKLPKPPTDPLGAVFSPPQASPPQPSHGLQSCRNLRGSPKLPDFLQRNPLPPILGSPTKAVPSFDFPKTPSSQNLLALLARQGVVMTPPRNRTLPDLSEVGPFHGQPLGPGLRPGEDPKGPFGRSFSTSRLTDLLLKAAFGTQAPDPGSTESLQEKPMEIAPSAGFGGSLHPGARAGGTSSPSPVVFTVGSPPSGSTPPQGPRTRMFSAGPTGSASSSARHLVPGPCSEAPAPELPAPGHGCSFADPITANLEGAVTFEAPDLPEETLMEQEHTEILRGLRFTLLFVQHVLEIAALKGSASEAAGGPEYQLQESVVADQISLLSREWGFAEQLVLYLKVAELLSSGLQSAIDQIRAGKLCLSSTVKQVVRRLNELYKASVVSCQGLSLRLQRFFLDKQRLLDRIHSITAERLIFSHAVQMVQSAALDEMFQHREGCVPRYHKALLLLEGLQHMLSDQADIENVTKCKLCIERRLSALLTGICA
Chain of CDK9 (Inactive) (P50750 whole entry): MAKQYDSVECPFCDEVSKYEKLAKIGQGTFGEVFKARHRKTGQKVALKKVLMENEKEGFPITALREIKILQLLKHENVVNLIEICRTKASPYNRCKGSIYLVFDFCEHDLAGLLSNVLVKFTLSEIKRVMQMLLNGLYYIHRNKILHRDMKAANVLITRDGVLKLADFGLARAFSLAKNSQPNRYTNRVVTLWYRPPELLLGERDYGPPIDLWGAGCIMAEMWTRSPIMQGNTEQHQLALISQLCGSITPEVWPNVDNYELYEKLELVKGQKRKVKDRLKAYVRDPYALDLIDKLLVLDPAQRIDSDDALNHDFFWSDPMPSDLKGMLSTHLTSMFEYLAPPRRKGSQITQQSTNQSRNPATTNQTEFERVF
Chain of FGFR3 K650M (P22607 23-806 K650M): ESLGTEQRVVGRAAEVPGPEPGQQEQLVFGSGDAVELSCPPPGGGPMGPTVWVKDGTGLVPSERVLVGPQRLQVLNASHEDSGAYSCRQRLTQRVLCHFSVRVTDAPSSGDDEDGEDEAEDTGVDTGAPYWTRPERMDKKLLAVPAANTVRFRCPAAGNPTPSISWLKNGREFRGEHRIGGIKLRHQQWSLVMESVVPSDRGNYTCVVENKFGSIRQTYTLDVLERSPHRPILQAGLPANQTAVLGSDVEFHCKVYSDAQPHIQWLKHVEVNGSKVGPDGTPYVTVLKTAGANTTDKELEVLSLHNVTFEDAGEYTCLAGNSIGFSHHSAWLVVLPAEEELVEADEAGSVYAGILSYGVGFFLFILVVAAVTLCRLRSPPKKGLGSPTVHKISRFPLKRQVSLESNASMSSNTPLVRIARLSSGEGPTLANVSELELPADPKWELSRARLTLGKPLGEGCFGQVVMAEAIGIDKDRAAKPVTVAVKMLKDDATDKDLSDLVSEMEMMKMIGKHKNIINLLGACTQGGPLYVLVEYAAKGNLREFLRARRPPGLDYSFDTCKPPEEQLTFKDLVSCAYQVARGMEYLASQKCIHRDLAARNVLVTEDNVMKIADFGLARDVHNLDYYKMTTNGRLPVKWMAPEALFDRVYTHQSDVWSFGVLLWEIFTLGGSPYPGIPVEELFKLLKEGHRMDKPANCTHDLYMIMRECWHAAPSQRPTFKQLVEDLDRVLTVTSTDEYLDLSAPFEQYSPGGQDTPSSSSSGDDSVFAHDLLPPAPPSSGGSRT
T2 sequence (Q9UM73 19-1620 L1196M): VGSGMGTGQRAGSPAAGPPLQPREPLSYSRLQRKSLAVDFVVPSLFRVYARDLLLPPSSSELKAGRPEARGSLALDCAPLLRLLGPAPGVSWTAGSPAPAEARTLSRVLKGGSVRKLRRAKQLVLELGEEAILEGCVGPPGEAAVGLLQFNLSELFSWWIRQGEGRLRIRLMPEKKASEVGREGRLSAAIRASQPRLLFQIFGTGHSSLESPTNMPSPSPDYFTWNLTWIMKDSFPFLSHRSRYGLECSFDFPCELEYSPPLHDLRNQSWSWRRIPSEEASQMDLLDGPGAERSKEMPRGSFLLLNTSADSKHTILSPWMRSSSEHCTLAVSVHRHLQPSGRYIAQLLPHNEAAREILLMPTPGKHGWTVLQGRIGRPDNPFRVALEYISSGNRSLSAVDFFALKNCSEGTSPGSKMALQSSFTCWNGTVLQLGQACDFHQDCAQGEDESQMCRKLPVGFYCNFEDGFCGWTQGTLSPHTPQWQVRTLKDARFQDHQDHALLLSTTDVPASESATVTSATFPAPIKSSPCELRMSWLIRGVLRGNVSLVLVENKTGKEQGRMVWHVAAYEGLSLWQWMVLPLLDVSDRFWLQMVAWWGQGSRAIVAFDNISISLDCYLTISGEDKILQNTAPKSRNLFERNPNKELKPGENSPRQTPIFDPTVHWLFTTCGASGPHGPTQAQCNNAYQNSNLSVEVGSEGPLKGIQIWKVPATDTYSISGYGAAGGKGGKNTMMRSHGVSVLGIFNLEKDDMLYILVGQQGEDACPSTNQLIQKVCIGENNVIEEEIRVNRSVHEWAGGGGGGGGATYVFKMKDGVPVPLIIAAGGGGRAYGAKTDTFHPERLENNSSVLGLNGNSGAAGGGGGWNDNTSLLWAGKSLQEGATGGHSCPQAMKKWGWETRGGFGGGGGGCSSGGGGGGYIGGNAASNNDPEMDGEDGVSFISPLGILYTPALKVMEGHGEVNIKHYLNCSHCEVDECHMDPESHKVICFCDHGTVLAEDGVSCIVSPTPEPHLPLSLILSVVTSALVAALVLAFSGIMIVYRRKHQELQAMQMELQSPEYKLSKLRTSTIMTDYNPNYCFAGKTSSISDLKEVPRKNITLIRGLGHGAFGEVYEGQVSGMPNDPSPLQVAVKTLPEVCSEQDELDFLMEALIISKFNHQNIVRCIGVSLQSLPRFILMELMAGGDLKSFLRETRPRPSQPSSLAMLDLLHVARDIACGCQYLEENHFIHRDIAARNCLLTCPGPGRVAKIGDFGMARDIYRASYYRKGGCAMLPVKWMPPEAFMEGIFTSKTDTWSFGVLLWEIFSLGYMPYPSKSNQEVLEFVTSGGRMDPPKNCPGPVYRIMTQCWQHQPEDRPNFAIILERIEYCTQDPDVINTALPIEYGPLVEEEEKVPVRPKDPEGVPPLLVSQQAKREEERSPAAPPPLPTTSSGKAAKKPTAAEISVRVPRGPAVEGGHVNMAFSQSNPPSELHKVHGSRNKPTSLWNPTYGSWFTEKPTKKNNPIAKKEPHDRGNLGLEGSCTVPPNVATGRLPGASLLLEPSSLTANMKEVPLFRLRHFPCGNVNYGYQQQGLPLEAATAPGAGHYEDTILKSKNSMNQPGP
T29 sequence (P30291 whole entry): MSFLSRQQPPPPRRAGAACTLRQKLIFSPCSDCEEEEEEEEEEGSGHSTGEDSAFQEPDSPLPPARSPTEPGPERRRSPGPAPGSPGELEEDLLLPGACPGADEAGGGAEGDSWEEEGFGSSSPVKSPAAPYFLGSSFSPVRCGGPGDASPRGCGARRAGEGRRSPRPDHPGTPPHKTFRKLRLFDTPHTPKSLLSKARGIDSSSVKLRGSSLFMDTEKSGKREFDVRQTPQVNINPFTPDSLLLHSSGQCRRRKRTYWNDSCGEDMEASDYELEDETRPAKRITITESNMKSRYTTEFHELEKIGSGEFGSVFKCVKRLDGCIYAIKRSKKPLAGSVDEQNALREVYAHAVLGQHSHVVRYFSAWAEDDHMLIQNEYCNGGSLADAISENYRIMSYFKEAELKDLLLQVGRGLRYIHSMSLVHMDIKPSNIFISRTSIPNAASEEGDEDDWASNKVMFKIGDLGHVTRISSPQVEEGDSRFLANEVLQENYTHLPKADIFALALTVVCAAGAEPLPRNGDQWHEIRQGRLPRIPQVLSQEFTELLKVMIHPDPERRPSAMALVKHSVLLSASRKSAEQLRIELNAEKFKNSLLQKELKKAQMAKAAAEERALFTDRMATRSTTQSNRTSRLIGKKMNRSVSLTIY

`COc1ccc2[nH]c3c(=O)[nH]c4ccc(O)cc4c3c2c1` [Compound 55, 2-Hydroxy-10-methoxy-5,7-dihydro-6H-indolo[2,3-c]quinolin-6-one] showed an inhibition at 1 µM (ABL1 M351T) of 60%, an inhibition at 1 µM (ACVR1 (ALK2)) of 15% and an inhibition at 1 µM (ADCK3) of 60%. It also gave an inhibition at 1 µM (ALK L1196M) of 15%, an inhibition at 1 µM (AXL R499C) of 35% and an inhibition at 1 µM (BMPR1B (ALK6)) of 8%. For the same molecule, the inhibition at 1 µM (CDC7/DBF4) was 83%, the inhibition at 1 µM (CDK11 (Inactive)) was 13% and the inhibition at 1 µM (CDK16 (PCTK1)/cyclin Y) was 38%. It also gave an inhibition at 1 µM (CDK9 (Inactive)) of 59%, an inhibition at 1 µM (EGFR (ErbB1) d746-750) of 34% and an inhibition at 1 µM [1] of 34%. It also gave an inhibition at 1 µM (EIF2AK2 (PKR)) of 74%, an inhibition at 1 µM (FGFR3 K650M) of 67% and an inhibition at 1 µM (GRK1) of 50%. It also gave an inhibition at 1 µM (KIT D820E) of 24%, an inhibition at 1 µM (KIT N822K) of 45% and an inhibition at 1 µM (KIT V559D T670I) of 32%. It also gave an inhibition at 1 µM (KIT Y823D) of 30%, an inhibition at 1 µM (MAP3K3 (MEKK3)) of 71% and an inhibition at 1 µM (MASTL) of 50%. The inhibition at 1 µM (MKNK2 (MNK2)) was 19%, the inhibition at 1 µM (NUAK2) was 53% and the inhibition at 1 µM (PRKACB (PRKAC beta)) was 35%. It also gave an inhibition at 1 µM (PRKACG (PRKAC gamma)) of 17%, an inhibition at 1 µM (RAF1 (cRAF) Y340D Y341D) of 4% and an inhibition at 1 µM (STK17B (DRAK2)) of 93%. It also gave an inhibition at 1 µM (STK32C (YANK3)) of 1%, an inhibition at 1 µM (TESK2) of 3% and an inhibition at 1 µM (TGFBR1 (ALK5)) of 10%. The inhibition at 1 µM (TGFBR2) was 102%, the inhibition at 1 µM (TLK1) was 68% and the inhibition at 1 µM (TLK2) was 88%. It also gave an inhibition at 1 µM (ULK1) of 31%, an inhibition at 1 µM (VRK2) of 54% and an inhibition at 1 µM (WEE1) of 18%. The inhibition at 1 µM (WNK2) was 14% and the inhibition at 1 µM (ZAK) was 4%.
